Laboratory results reported in paper PMC9023544, “Ketone-selenoesters as potential anticancer and multidrug resistance modulation agents in 2D and 3D ovarian and breast cancer in vitro models” (Scientific Reports, 2022).

Test system: ABC superfamily genes in MCF-7/PAX
Assay: Expression of genes encoding ABC transporters, qPCR
Assay type: cell-based, human
Procedure: Based on the fact that compounds K3, K4, K7 sensitized drug-resistant cell lines (HOC/ADR, MCF-7/PAX) and modulated ATPase activity of one from the ABC proteins (P-gp), we verified the potential of these compounds to affect ABC superfamily gene expression. The ovarian and breast cancer cell lines (parental cells and resistant sub-line) were analysed for the expression profile of genes encoding the ABC proteins in the previous works[18]–[20]. […] After 48 h, the effect of compounds alone or in the combination with cytostatics was observed (Supplementary Tables 1, Table 2).
To determine the impact of selected compounds on the expression of genes encoding ABC transporter, HOC/ADR and MCF-7/PAX cells were seeded for 24 h into 5 cm Petri dishes with DMEM medium at the cell density 1 × 10^5 cells/mL. Afterwards, the cells were washed 1× with PBS and new fresh DMEM supplemented with K3, K4, and K7 (in concentration corresponding to their IC10 value) alone or combined with cytostatics (Adriamycin or paclitaxel in concentration corresponding to their IC25 value) was added. In the experiment, positive and negative control was also included (positive—untreated cells, negative—cells treated only with cytostatics). After 48 h exposure, the cells were washed once with PBS and released from the surface by using the above-mentioned trypsin–EDTA procedure. The enzyme reaction was stopped by medium addition and the cells were centrifuged (3200×g; 10 min, 4 °C). The supernatants were removed and before the next centrifugation, the pellets were resuspended in 1.5 mL of cooled PBS (5400×g; 10 min, 4 °C). After the second washing step, the cells were centrifuged another time (10,000×g; 3 min, 4 °C). Subsequently, 1 mL of Trizol (Invitrogen) was added to the pellets and the compounds were stored − 80 °C.
The RNA concentration of selenoester treated samples was determined using QuantiT RiboGreen RNA Assay Kit and Infinite M200 plate reader (Tecan, Männedor, Switzerland). The cDNA was synthesized from 0.5 µg of total RNA by RevertAid First Strand Synthesis cDNA Kit (MBI Fermentas, Vilnius, Lithuania). To determine the quality of cDNA, the ubiquitin C gene fragment was amplified. The experiment was performed in 384-well block by using ViiA7 Real-Time PCR System (Life Technologies, Camarillo, California, United States). A master mix contained 0.25 µL of 20× TaqMan Gene Expression Assay, 1 µL of 5× HotFIREPol Probe qPCR Mix Plus, 1.75 µL of RNase free water and 2 µL of 8× diluted cDNA. The final reaction volume was 5 µL. The PCR parameters were as follows: initial hold (50 °C for 2 min), denaturation (95 °C for 10 min), followed by 45 cycles (denaturation at 95 °C for 15 s, annealing at 60 °C for 1 min). After each cycle, the fluorescent signal was determined. For each compound, duplicates were analysed and those with a standard deviation higher than 0.5 Ct were re-analysed. A quantitate real-time PCR was followed by MIQE guidelines. To compare the relative transcript levels of genes, the software REST 2009 (Qiagen, Hilden, Germany) was used.
Table 2. Effect of selenoesters either on the expression of the ABC gene superfamily in paclitaxel-resistant breast cancer cell line (MCF-7/PAX).
Gene expression of ABC transporters were estimated using comercial predesigned Taqman Gene Expression Assays (Life technologies). TaqMan Gene Expression Assays are based on 5´ nuclease chemistry, and each assay contains the primer and probe set for target of interest. Taqman assays IDs and GenBank Accession numbers of reference sequencies identifying their location and amplicon lengths are included in the Supplementary Table I. * Relative transcript levels (P-value ) in treated and non-treated cancer cell lines were compared using REST 2009 software.

## CC(=O)C[Se]C(=O)c1ccc(Br)cc1 [K3]
  number of ABC genes with altered expression: 30
IC10 alone, 48 h
  ABCA2 Expression Difference: 0.188
  ABCA2 Treated vs. Untr.: DOWN
  ABCA3 Expression Difference: 0.481
  ABCA3 Treated vs. Untr.: DOWN
  ABCA4 Expression Difference: 27.38
  ABCA5 Expression Difference: 0.559
  ABCA5 Treated vs. Untr.: DOWN
  ABCA7 Expression Difference: 0.5100
  ABCA7 Treated vs. Untr.: DOWN
  ABCA12 Expression Difference: 1.149
  ABCB1 Expression Difference: 0.401
  ABCB1 Treated vs. Untr.: DOWN
  ABCB2 Expression Difference: 0.354
  ABCB2 Treated vs. Untr.: DOWN
  ABCB3 Expression Difference: 0.235
  ABCB3 Treated vs. Untr.: DOWN
  ABCB6 Expression Difference: 0.340
  ABCB6 Treated vs. Untr.: DOWN
  ABCB7 Expression Difference: 0.143
  ABCB7 Treated vs. Untr.: DOWN
  ABCB8 Expression Difference: 0.488
  ABCB8 Treated vs. Untr.: DOWN
  ABCB9 Expression Difference: 0.422
  ABCB9 Treated vs. Untr.: DOWN
  ABCB10 Expression Difference: 0.922
  ABCB10 Treated vs. Untr.: DOWN
  ABCC1 Expression Difference: 0.272
  ABCC1 Treated vs. Untr.: DOWN
  ABCC2 Expression Difference: 0.076
  ABCC2 Treated vs. Untr.: DOWN
  ABCC3 Expression Difference: 15.79
  ABCC4 Expression Difference: 0.221
  ABCC4 Treated vs. Untr.: DOWN
  ABCC5 Expression Difference: 1.010
  ABCC6 Expression Difference: 0.958
  ABCC6 Treated vs. Untr.: DOWN
  ABCC8 Expression Difference: 0.648
  ABCC8 Treated vs. Untr.: DOWN
  ABCC10 Expression Difference: 0.171
  ABCC10 Treated vs. Untr.: DOWN
  ABCD1 Expression Difference: 0.123
  ABCD1 Treated vs. Untr.: DOWN
  ABCD3 Expression Difference: 0.267
  ABCD3 Treated vs. Untr.: DOWN
  ABCD4 Expression Difference: 0.971
  ABCE1 Expression Difference: 0.552
  ABCE1 Treated vs. Untr.: DOWN
  ABCF1 Expression Difference: 2.388
  ABCF2 Expression Difference: 0.625
  ABCF2 Treated vs. Untr.: DOWN
  ABCF3 Expression Difference: 0.487
  ABCF3 Treated vs. Untr.: DOWN
  ABCG1 Expression Difference: 0.132
  ABCG1 Treated vs. Untr.: DOWN
  ABCG2 Expression Difference: 0.250
  ABCG2 Treated vs. Untr.: DOWN
  ABCG4 Expression Difference: 0.204
  ABCG4 Treated vs. Untr.: DOWN
  decrease of expression of ABCB1 (P-gp) encoding gene: 60%
  downregulation of expression of ABCC1 (MRP1): 73%
  downregulation of expression of ABCG2: 75%

## CC(=O)C[Se]C(=O)c1ccc(C(C)(C)C)cc1 [K7]
  number of ABC genes with altered expression: 32
IC10 alone, 48 h
  ABCA2 Expression Difference: 0.159
  ABCA2 Treated vs. Untr.: DOWN
  ABCA3 Expression Difference: 0.376
  ABCA3 Treated vs. Untr.: DOWN
  ABCA4 Expression Difference: 20.68
  ABCA5 Expression Difference: 0.600
  ABCA5 Treated vs. Untr.: DOWN
  ABCA7 Expression Difference: 0.384
  ABCA7 Treated vs. Untr.: DOWN
  ABCA12 Expression Difference: 0.745
  ABCA12 Treated vs. Untr.: DOWN
  ABCB1 Expression Difference: 0.361
  ABCB1 Treated vs. Untr.: DOWN
  ABCB2 Expression Difference: 0.274
  ABCB2 Treated vs. Untr.: DOWN
  ABCB3 Expression Difference: 0.164
  ABCB3 Treated vs. Untr.: DOWN
  ABCB6 Expression Difference: 0.305
  ABCB6 Treated vs. Untr.: DOWN
  ABCB7 Expression Difference: 0.131
  ABCB7 Treated vs. Untr.: DOWN
  ABCB8 Expression Difference: 0.407
  ABCB8 Treated vs. Untr.: DOWN
  ABCB9 Expression Difference: 0.340
  ABCB9 Treated vs. Untr.: DOWN
  ABCB10 Expression Difference: 0.822
  ABCB10 Treated vs. Untr.: DOWN
  ABCC1 Expression Difference: 0.238
  ABCC1 Treated vs. Untr.: DOWN
  ABCC2 Expression Difference: 0.061
  ABCC2 Treated vs. Untr.: DOWN
  ABCC3 Expression Difference: 15.69
  ABCC4 Expression Difference: 0.213
  ABCC4 Treated vs. Untr.: DOWN
  ABCC5 Expression Difference: 0.933
  ABCC5 Treated vs. Untr.: DOWN
  ABCC6 Expression Difference: 0.424
  ABCC6 Treated vs. Untr.: DOWN
  ABCC8 Expression Difference: 0.651
  ABCC8 Treated vs. Untr.: DOWN
  ABCC10 Expression Difference: 0.170
  ABCC10 Treated vs. Untr.: DOWN
  ABCD1 Expression Difference: 0.104
  ABCD1 Treated vs. Untr.: DOWN
  ABCD3 Expression Difference: 0.247
  ABCD3 Treated vs. Untr.: DOWN
  ABCD4 Expression Difference: 0.872
  ABCD4 Treated vs. Untr.: DOWN
  ABCE1 Expression Difference: 0.505
  ABCE1 Treated vs. Untr.: DOWN
  ABCF1 Expression Difference: 2.263
  ABCF2 Expression Difference: 0.601
  ABCF2 Treated vs. Untr.: DOWN
  ABCF3 Expression Difference: 0.484
  ABCF3 Treated vs. Untr.: DOWN
  ABCG1 Expression Difference: 0.307
  ABCG1 Treated vs. Untr.: DOWN
  ABCG2 Expression Difference: 0.207
  ABCG2 Treated vs. Untr.: DOWN
  ABCG4 Expression Difference: 0.188
  ABCG4 Treated vs. Untr.: DOWN
  decrease of expression of ABCB1 (P-gp) encoding gene: 64%
  downregulation of expression of ABCC1 (MRP1): 76%
  downregulation of expression of ABCG2: 80%
